Measurements reported in ChEMBL document CHEMBL4308844, “Allosteric Modulation of Class A GPCRs: Targets, Agents, and Emerging Concepts” (J Med Chem, 2018).

Tests used:
[1] = target: Cannabinoid receptor 1 (Homo sapiens) (UniProt P21554); test: Positive allosteric modulation of human CB1R assessed as potentiation of CP55940-induced calcium mobilization at […] by cell based assay relative to control; format: functional
[2] = target: T1, Muscarinic acetylcholine receptor M5 (Homo sapiens) (UniProt P08912); test: Positive allosteric modulation of M5 AchR (unknown origin) assessed as increase in acetylcholine-induced response relative to control
T1 sequence (whole entry): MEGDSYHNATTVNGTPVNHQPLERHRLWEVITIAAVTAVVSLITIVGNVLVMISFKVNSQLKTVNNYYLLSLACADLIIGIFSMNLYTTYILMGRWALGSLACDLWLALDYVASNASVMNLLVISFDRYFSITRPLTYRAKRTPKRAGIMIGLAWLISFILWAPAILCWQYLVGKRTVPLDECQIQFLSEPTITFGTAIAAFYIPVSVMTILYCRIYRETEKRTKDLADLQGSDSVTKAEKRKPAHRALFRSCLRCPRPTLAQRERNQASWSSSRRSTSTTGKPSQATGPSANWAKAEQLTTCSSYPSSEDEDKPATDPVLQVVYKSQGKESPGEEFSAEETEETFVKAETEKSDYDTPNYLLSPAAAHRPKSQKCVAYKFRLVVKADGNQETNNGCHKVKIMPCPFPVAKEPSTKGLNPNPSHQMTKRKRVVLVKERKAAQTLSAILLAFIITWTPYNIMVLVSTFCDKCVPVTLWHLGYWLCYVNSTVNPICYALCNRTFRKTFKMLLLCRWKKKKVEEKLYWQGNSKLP

[3] = target: T2, Muscarinic acetylcholine receptor M1 (Homo sapiens, UniProt P11229); test: Positive allosteric modulation of M1 AchR (unknown origin)
T2 sequence (P11229 whole entry): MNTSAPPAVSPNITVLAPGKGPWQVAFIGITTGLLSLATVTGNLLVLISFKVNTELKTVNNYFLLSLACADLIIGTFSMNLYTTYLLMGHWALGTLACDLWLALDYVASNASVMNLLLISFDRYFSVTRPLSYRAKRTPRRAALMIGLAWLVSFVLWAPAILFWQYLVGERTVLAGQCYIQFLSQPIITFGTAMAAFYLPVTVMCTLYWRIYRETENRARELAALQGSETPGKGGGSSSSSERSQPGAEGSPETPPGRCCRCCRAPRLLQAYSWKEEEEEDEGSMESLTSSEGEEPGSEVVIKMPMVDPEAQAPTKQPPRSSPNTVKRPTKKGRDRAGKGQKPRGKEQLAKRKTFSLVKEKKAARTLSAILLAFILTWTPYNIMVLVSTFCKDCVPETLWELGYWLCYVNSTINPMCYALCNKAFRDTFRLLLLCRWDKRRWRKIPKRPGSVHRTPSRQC

[4] = target: T3, Muscarinic acetylcholine receptor M4 (Homo sapiens, UniProt P08173); test: Positive allosteric modulation of human M4 AchR
T3 sequence (P08173 whole entry): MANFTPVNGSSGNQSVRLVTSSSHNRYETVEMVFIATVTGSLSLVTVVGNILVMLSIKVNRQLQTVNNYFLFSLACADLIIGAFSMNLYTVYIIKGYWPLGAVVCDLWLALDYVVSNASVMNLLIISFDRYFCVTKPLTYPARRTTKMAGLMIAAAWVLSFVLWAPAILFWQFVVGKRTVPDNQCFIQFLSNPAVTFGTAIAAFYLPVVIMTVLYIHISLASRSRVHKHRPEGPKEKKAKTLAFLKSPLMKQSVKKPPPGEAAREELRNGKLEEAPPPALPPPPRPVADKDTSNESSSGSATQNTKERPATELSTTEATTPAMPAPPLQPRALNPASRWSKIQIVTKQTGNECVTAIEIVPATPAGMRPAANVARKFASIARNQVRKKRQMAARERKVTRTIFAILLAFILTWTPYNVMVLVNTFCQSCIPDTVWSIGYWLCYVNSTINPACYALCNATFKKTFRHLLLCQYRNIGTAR

[5] = target: T4, Muscarinic acetylcholine receptor M4 (Rattus norvegicus, UniProt P08485); test: Positive allosteric modulation of rat M4 AchR
T4 sequence (P08485 whole entry): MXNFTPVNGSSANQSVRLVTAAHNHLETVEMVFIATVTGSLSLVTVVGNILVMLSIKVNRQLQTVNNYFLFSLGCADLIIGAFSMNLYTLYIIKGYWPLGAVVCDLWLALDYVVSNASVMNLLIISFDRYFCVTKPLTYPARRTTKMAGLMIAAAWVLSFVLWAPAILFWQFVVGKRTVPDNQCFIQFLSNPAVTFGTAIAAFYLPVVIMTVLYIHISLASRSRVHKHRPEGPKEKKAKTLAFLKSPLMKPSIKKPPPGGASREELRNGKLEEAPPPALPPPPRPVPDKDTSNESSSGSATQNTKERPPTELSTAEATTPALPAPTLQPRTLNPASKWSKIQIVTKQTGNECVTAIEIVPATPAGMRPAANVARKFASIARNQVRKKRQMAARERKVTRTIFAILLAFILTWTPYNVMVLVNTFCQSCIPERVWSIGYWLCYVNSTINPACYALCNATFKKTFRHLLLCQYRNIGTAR

[6] = target: D(2) dopamine receptor (Homo sapiens) (UniProt P14416); test: Negative allosteric modulation of D2R (unknown origin) assessed as decrease in [3H]NPA binding at 1 uM relative to control
[7] = target: D(2) dopamine receptor (Homo sapiens) (UniProt P14416); test: Negative allosteric modulation of D2R (unknown origin) assessed as decrease in [3H]NPA binding at 10 uM relative to control
[8] = target: T5, 5-hydroxytryptamine receptor 2C (Homo sapiens) (UniProt P28335); test: Agonist activity at 5-HT2C receptor (unknown origin) expressed in HEK293 cells assessed as IP3 release at 10 uM relative to 5-HT maximal response
T5 sequence (whole entry): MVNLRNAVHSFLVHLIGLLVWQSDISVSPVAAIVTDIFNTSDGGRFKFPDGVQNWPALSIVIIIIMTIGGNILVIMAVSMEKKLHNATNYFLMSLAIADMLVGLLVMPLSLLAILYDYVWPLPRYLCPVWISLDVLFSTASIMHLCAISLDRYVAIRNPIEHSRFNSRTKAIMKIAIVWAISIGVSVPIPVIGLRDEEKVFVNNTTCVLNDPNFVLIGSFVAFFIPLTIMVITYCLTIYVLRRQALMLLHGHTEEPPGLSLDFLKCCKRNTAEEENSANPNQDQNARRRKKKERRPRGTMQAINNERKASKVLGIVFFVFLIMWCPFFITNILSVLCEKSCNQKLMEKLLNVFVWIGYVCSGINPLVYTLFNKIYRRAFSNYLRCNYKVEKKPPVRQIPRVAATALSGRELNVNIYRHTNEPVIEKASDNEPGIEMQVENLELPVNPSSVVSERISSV

[9] = target: T5, 5-hydroxytryptamine receptor 2C (Homo sapiens); test: Positive allosteric modulation of 5-HT2C receptor (unknown origin) assessed as increase in 5-HT-induced displacement of [3H]mesulergine by measuring fold reduction in 5-HT Ki at 20 uM relative to control
[10] = target: T6, C-X-C chemokine receptor type 3 (Homo sapiens) (UniProt P49682); test: Inhibition of [3H]RAMX3 binding to CXCR3 (unknown origin) relative to control; conditions: concentration not given here
T6 sequence (whole entry): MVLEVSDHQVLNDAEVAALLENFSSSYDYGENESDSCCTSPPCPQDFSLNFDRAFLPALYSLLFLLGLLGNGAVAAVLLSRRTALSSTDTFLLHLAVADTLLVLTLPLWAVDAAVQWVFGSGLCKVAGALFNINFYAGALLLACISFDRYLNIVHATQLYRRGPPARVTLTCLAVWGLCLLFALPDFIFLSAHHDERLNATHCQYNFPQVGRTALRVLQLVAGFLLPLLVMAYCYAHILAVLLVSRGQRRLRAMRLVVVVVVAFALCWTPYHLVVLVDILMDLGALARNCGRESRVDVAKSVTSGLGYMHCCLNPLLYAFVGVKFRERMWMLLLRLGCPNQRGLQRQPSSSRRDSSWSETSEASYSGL

[11] = target: T7, C-X-C chemokine receptor type 1 (Homo sapiens, UniProt P25024); test: Inhibition of CXCR1 (unknown origin)
T7 sequence (P25024 whole entry): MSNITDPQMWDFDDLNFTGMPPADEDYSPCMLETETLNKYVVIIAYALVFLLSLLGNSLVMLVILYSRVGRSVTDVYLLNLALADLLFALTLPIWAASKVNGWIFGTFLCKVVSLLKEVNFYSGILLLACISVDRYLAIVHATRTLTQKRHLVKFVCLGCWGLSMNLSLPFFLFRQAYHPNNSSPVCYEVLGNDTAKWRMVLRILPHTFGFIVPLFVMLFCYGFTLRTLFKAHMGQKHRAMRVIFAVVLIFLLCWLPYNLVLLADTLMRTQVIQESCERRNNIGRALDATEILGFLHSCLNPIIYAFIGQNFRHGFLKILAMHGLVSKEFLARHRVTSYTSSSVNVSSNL

[12] = target: T8, C-X-C chemokine receptor type 2 (Homo sapiens, UniProt P25025); test: Inhibition of CXCR2 (unknown origin)
T8 sequence (P25025 whole entry): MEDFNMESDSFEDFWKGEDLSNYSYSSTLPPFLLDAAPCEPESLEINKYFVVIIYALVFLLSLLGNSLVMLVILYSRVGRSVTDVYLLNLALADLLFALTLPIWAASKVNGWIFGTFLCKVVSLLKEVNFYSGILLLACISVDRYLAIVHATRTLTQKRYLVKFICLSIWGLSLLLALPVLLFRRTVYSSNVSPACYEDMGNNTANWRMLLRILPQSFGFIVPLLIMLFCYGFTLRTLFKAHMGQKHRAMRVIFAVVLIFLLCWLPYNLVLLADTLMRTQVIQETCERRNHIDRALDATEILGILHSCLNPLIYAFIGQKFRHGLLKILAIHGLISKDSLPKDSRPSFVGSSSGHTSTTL

[13] = target: T9, Substance-K receptor (Homo sapiens) (UniProt P21452); test: Negative allosteric modulation of NK2 receptor (unknown origin) assessed as decrease in agonist-induced cAMP production at 10 uM by cell based FRET assay relative to control; format: functional
T9 sequence (whole entry): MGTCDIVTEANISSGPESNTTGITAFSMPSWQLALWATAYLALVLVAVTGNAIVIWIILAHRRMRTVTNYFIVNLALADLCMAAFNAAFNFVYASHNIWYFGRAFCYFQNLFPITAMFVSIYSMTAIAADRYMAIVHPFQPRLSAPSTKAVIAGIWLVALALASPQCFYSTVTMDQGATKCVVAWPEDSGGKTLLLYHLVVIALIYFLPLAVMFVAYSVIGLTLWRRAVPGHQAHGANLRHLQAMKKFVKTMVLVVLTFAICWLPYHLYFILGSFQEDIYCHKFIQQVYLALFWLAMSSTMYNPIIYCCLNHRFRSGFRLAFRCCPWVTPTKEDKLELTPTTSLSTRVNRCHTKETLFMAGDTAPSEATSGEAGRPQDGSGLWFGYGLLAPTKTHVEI

[14] = target: Cannabinoid receptor 1 (Mus musculus) (UniProt P47746); test: Positive allosteric modulation of CB1R in MF1 mouse brain membranes assessed as increase in [3H]CP55940 binding after 60 mins relative to control; format: cell membranes
[15] = target: Cannabinoid receptor 1 (Mus musculus) (UniProt P47746); test: Positive allosteric modulation of CB1R in MF1 mouse brain membranes assessed as increase in anandamide-stimulated [35S]GTPgammaS binding after 60 mins relative to control; format: functional, cell membranes
[16] = target: Cannabinoid receptor 1 (Mus musculus) (UniProt P47746); test: Positive allosteric modulation of CB1R in MF1 mouse brain membranes assessed as increase in [3H]WIN55212-2 binding after 60 mins relative to control; format: cell membranes
[17] = target: T10, Muscarinic acetylcholine receptor M4 (Homo sapiens) (UniProt P08173); test: Positive allosteric modulation of human M4 AchR expressed in CHO cells assessed as increase in acteylcholine-induced calcium mobilization by FLIPR assay; format: functional, cell-based
T10 sequence (whole entry): T3 sequence (P08173 whole entry)

D(2) dopamine receptor (Homo sapiens), sequence (P14416 whole entry): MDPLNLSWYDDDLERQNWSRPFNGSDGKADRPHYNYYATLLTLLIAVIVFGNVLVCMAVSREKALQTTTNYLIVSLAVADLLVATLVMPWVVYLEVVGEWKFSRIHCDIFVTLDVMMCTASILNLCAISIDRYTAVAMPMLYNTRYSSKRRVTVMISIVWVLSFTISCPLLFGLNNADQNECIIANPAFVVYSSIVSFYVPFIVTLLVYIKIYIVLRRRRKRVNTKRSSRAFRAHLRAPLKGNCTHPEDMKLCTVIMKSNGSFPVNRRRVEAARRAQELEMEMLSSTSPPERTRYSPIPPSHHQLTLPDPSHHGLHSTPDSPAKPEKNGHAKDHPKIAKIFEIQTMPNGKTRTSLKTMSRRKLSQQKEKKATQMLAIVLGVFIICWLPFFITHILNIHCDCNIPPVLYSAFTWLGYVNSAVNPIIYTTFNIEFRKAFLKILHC
Cannabinoid receptor 1 (Mus musculus), sequence (P47746 whole entry): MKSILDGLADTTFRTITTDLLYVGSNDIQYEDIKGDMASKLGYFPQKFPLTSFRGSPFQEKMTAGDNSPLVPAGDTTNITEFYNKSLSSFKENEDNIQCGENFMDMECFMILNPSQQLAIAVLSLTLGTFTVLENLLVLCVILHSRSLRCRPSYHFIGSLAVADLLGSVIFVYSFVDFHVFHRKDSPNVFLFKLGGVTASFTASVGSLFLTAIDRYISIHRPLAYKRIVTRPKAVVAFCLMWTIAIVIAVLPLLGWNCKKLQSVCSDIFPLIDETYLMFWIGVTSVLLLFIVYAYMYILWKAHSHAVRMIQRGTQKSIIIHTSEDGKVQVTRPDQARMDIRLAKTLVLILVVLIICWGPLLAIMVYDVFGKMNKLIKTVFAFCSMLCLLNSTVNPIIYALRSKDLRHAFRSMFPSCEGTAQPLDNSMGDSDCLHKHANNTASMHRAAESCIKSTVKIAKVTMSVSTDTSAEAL
Cannabinoid receptor 1 (Homo sapiens), sequence (P21554 whole entry): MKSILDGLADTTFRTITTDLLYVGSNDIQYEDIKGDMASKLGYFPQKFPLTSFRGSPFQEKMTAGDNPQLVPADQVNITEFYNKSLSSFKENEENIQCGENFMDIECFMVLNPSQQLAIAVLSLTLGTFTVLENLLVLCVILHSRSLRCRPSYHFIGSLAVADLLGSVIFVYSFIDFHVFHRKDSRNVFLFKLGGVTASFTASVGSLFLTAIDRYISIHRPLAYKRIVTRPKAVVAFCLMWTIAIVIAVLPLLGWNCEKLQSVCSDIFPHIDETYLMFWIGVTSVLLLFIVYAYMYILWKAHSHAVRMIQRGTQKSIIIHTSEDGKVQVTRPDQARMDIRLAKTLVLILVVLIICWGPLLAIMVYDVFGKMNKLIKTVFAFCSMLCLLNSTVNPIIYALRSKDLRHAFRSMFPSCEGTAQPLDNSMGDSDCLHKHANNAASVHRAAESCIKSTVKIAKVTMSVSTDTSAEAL

SMILES: Cc1ccc([C@H]2CC3CCC([C@H]2c2cc(-c4ccc(Cl)cc4)no2)N3C)cc1 (stereo not given in full)
- Emax [1]: 36%

SMILES: CCN(Cc1ccccc1C(F)(F)F)C(=O)C1CCN(S(=O)(=O)c2ccc3[nH]ncc3c2)CC1
- fold change (FC) [2]: 9.3

SMILES: Cc1cc(NC(=O)CS(=O)(=O)c2cn(Cc3ccc(-c4cnn(C)c4)nc3)c3cc(F)cc(F)c23)no1
- EC50 [3]: 310 nM

SMILES: Cc1cc(OCc2ccncc2)nc2sc(C(=O)NCc3cccc(F)c3F)c(N)c12
- EC50 [4]: 95 nM
- EC50 [5]: 2400 nM

SMILES: CC1(C)S[C@@H]2CC[C@]3(CCCN3C(=O)[C@@H]3CCCN3)C(=O)N2[C@H]1C(N)=O
- fold change (FC) [6]: 2.7
- fold change (FC) [7]: 2.8

SMILES: COc1ccc(Cn2cc(C(=O)N[C@H]3CCCC[C@@H]3O)c3ncccc32)cc1
- EC50 [3]: 1800 nM

SMILES: CC1(C)S[C@@H]2CC[C@]3(CCCN3C(=O)[C@@H]3CCCN3)C(=O)N2[C@@H]1C(N)=O
- fold change (FC) [6]: 2.7
- fold change (FC) [7]: 2.8

SMILES: CCCCCCCCCCC[C@@H]1CCN[C@H](C(=O)N[C@@H]([C@H]2O[C@H](SC)[C@H](O)[C@@H](O)[C@H]2O)[C@H](C)Cl)C1
- Emax [8]: < 71%
- fold change (FC) [9]: 25

SMILES: CCOc1ccc(-n2c(C(C)N(CC3CCN(Cc4ccc(C5(C(F)(F)F)N=N5)cc4)CC3)C(=O)Cc3ccc(F)c(C(F)(F)F)c3)nc3ncccc3c2=O)cc1 (stereo not given)
- inhibition [10]: 80%

SMILES: C[C@@H](C(=O)NS(C)(=O)=O)c1ccc(OS(=O)(=O)C(F)(F)F)cc1
- IC50 [11]: 0.1 nM
- IC50 [12]: 0.1 nM

SMILES: N#CCN(Cc1ccccc1)Cc1ccc2ccccc2c1
- inhibition [13]: 30%

SMILES: Cc1ccc2c(C(C[N+](=O)[O-])c3cccs3)c(-c3ccccc3)[nH]c2c1 (stereo not given)
- Emax [14]: 207%
- Activity [15]: 40%
- Emax [16]: 225%

SMILES: COc1nc2sc(C(=O)NC3CC3)c(N)c2c(C)c1Cl
- Kb [17]: 200 nM
